Data taken from patent publication US9879050B2, “Substituted urea depsipeptide analogs as activators of the CLPP endopeptidase” (priority 2013, dated 2018).
≈ marks a conversion by molar mass, not a printed value. Read-outs that look alike come from different tables or passages of the source. *1 amine or outer side, *2 acyl side, *3 side chain or, on linkers, in order; H or OH if unused. Where a SMILES comes first, the peptide text is derived from it. Bridges are numbered along the chain shown (N, C = ends). [ ]: non-standard residue; d: D form. The star is where a group is joined. Phe(3,5-F2) = N[C@@H](Cc1cc(F)cc(F)c1)C(=O)O; NHPh(4-CF3) = FC(F)(F)c1ccc(N*)cc1; Heptenoyl(2E) = CCCC/C=C/C(=O)*; aThr = C[C@H](O)[C@H](N)C(=O)O; Pip = O=C(O)[C@@H]1CCCCN1; CO = O=C([*:1])[*:2]

Key:
in vitro = conditions: CD-1, mouse, microsomes, pH 7.4
Experimental: Compounds were initially prepared by dissolving them into DMSO at a final concentration of 10 mM. NADPH regenerating solutions A and B and mouse liver microsomes (CD-1) were obtained from BD Gentest (Woburn, Mass.). Ninety-six well deep well plates were obtained from MidWest Scientific Inc (Valley Park, Mo.).
Sample preparation for microsomal stability was modified from methods of Di, L., et al., Int J Pharm. 2005 Jun. 13; 297(1-2): 110-9. A set of incubation times of 0, 15, 30, 60, 120, and 240 minutes were used. Mouse liver microsomal solutions were prepared by adding 58 μL of concentrated human or mouse liver microsomes (20 mg/mL protein concentration) to 1.756 mL of 0.1 M potassium phosphate buffer (pH 7.4) and 5 μL of 0.5 M EDTA to make a 0.6381 mg/mL (protein) microsomal solution. NADPH regenerating agent contained 113 μL of NADPH A, 23 μL of NADPH B, and 315 μL of 0.1 M potassium phosphate buffer (pH 7.4). The diluted test compound solutions (2 μL) were each added directly to a 1.79 mL of liver microsomal solution. This solution was mixed and 90 μL was transferred to 6 time points plates (each in triplicate wells). For the time 0 plate, 225 μL of cold acetonitrile with internal standard ([…] warfarin) was added to each well, followed by addition of NADPH regenerating agent (22.5 μL) and no incubation. For other five time points' plate, NADPH regenerating agent (22.5 μL) was added to each well to initiate the reaction. The plates were incubated at 37° C. for the required time, followed by quenching of the reaction by adding 225 μL of cold acetonitrile with internal standard (4 μg/ml warfarin). All of the plates were sealed and mixed well at 600 rpm for 10 minutes followed by centrifugation at 4000 rpm for 20 minutes. The supernatants (120 μL) were transferred to analytical plates for analysis by LCMS. LCMS conditions were described in the materials and instrumentation section above. The metabolic stability is evaluated via the half-life from least-squares fit of the multiple time points based on first-order kinetics.

S. aureus USA 300 ΔClpP = test: Minimal inhibitory concentration, microbroth dilution; format: cell-based, Staphylococcus aureus; conditions: ClpP inactivated strain
Method in brief: (§1)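 Compound was diluted twofold in the appropriate broth. Bacterial suspension (approx. 10^5 cfu/mL) was then added in equal volume, giving a maximum test concentration of 200 μM. After aerobic overnight incubation at 37 °C, wells were inspected visually for growth.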

[1] = Cytotoxicity assay, CellTiter-Glo cell viability; format: cell-based; conditions: African green monkey
Method in brief: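 Vero cells seeded overnight at 37 °C in DMEM with 10% FBS, then exposed to serial dilutions of compound for 72 h. Viability read by CellTiter-Glo luminescence; IC50 from duplicates, given as the range of two independent experiments.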

S. aureus ClpP (Sa-ClpP) = target: T1, S. aureus ClpP (Sa-ClpP) (Staphylococcus aureus, UniProt Q2G036); test: ClpP activation, casein-BODIPY digestion assay (first described method); format: biochemical
T1 construct: made in house; host or cells: E. coli BL21 (DE3)
T1 sequence (Q2G036 whole entry): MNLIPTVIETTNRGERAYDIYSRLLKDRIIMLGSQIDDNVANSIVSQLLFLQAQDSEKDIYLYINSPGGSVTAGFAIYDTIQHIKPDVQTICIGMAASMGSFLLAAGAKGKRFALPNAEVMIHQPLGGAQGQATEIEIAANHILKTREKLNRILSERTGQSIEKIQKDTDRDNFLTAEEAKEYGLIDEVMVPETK
Method in brief: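 Purified E. coli-expressed Sa-ClpP (10 μM) with 25 μg/ml BODIPY FL casein and 0-100 μM compound in 50 mM Tris pH 8, 200 mM KCl, 1 mM TCEP at 37° C. Fluorescence (ex 485/em 528 nm) read every 5 min over 45 min; velocities fit to dose-response for EC50 of 50% activation, in triplicate.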

E. faecails ATCC 33186 = test: Minimal inhibitory concentration, microbroth dilution; format: cell-based; conditions: Enterococcus faecalis, ATCC33186, read-out: Minimal Inhibitory Concentration E. faecails ATCC 33186
Method in brief: as §1

S. pneumoniae DAW27 = test: as above; format: cell-based; conditions: Streptococcus pneumoniae, DAW27, read-out: Minimal Inhibitory Concentration S. pneumoniae DAW27
Method in brief: as §1

[2] = Vero cells, 72 hours, read-out: Cytotoxicity IC50
[3] = first described ClpP activation assay (**), 10 μM saClpP, 25 μg/ml BODIPY FL casein, 37° C., read-out: ClpP Activation EC50

With `CCCC/C=C/C(=O)N[C@@H](Cc1cc(F)cc(F)c1)C(=O)N[C@@H]1C(=O)N2CCC[C@H]2C(=O)N2CCCC[C@H]2C(=O)N[C@@H](C)C(=O)N2CCC[C@H]2C(=O)O[C@H]1C` [ADEP 2719, reference compound] ({Heptenoyl(2E)}-[Phe(3,5-F2)][aThr]P[Pip]AP; ester 2-C) the half-life (in vitro) was 6 min, the “Minimal Inhibitory Concentration S. aureus USA 300 ΔClpP” value (S. aureus USA 300 ΔClpP) was 500 µM and the IC50 at 72 h [1, 2] was 37.7 ± 3.4 µM.

`C[C@@H]1C[C@H]2C(=O)OC[C@H](NC(=O)[C@H](Cc3ccccc3)NC(=O)Nc3ccc4c(c3)CCN4C)C(=O)N3CCC[C@H]3C(=O)N3CCCC[C@H]3C(=O)N[C@@H](C)C(=O)N2C1` [Compound 11, (S)—N-((2R,6S,8aS,14aS,20S,23aS)-2,6-Dimethyl-5,8,14,19,23-Pentaoxooctadecahydro-1H,5H,14H,19H-Pyrido[2,1-I]Dipyrrolo[2,1-C:2′,1′-L][1]Oxa[4,7,10,13]Tetraazacyclohexadecin-20-Yl)-2-(3-(1-Methylindolin-5-Yl)Ureido)-3-Phenylpropanamide] gave an EC50 (S. aureus ClpP (Sa-ClpP); [3]) of 2.3 ± 0.3 µM, an IC50 at 72 h [1, 2] of 76 ± 10.6 µM and an MIC (E. faecails ATCC 33186) of 0.6 µM (≈ 0.479 µg/mL). The MIC (S. pneumoniae DAW27) was 0.3 µM (≈ 0.24 µg/mL).

With `Cc1ccc(NC(=O)N[C@@H](Cc2cc(F)cc(F)c2)C(=O)N[C@@H]2C(=O)N3CCC[C@H]3C(=O)N3CCCC[C@H]3C(=O)N[C@@H](C)C(=O)N3CCC[C@H]3C(=O)O[C@H]2C)cc1` [Compound 15, (S)-3-(3,5-Difluorophenyl)-N-((6S,8aS,14aS,20S,21 S,23aS)-6,21-Dimethyl-5,8,14,19,23-Pentaoxooctadecahydro-1H,5H,14H,19H-Pyrido[2,1-I]Dipyrrolo[2,1-C:2′,1′-L][1]Oxa[4,7,10,13]Tetraazacyclohexadecin-20-Yl)-2-(3-(P-Tolyl)Ureido)Propanamide] the EC50 (S. aureus ClpP (Sa-ClpP); [3]) was 4.6 ± 0.9 µM, the half-life (in vitro) was 18 min and the “Minimal Inhibitory Concentration S. aureus USA 300 ΔClpP” value (S. aureus USA 300 ΔClpP) was 100 µM. The IC50 at 72 h [1, 2] was 39.7 ± 6.6 µM and the MIC (E. faecails ATCC 33186) was 0.3 µM (≈ 0.238 µg/mL).

With `C[C@@H]1NC(=O)[C@@H]2CCCCN2C(=O)[C@@H]2CCCN2C(=O)[C@@H](NC(=O)[C@H](Cc2cc(F)cc(F)c2)NC(=O)Nc2ccc(C(F)(F)F)cc2)[C@H](C)OC(=O)[C@@H]2CCCN2C1=O` [Compound 16, (S)-3-(3,5-Difluorophenyl)-N-((6S,8aS,14aS,20S,21 S,23aS)-6,21-Dimethyl-5,8,14,19,23-Pentaoxooctadecahydro-1H,5H,14H,19H-Pyrido[2,1-I]Dipyrrolo[2,1-C:2′,1′-L][1]Oxa[4,7,10,13]Tetraazacyclohexadecin-20-Yl)-2-(3-(4-(Trifluoromethyl)Phenyl)Ureido)Propanamide] ({NHPh(4-CF3)-CO}-[Phe(3,5-F2)][aThr]P[Pip]AP; ester 2-C) the EC50 (S. aureus ClpP (Sa-ClpP); [3]) was 4.4 ± 0.7 µM, the half-life (in vitro) was 42 min and the “Minimal Inhibitory Concentration S. aureus USA 300 ΔClpP” value (S. aureus USA 300 ΔClpP) was 3.1 µM. It also gave an IC50 at 72 h [1, 2] of 74.3 ± 9 µM and an MIC (E. faecails ATCC 33186) of under 0.1 µM.

For `C[C@@H]1NC(=O)[C@@H]2CCCCN2C(=O)[C@@H]2CCCN2C(=O)[C@@H](NC(=O)[C@H](Cc2cc(F)cc(F)c2)NC(=O)Nc2ccc3c(c2)OCO3)[C@H](C)OC(=O)[C@@H]2CCCN2C1=O` [Compound 17, (S)-2-(3-(Benzo[D][1,3]Dioxol-5-Yl)Ureido)-3-(3,5-Difluorophenyl)-N-((6S,8aS,14aS,20S,21 S,23aS)-6,21-Dimethyl-5,8,14,19,23-Pentaoxooctadecahydro-1H,5H,14H,19H-Pyrido[2,1-I]Dipyrrolo[2,1-C:2′,1′-L][1]Oxa[4,7,10,13]Tetraazacyclohexadecin-20-Yl)Propanamide], the EC50 (S. aureus ClpP (Sa-ClpP)) was 3.6 ± 0.6 µM, the half-life (in vitro) was 486 ± 66 min and the “Minimal Inhibitory Concentration S. aureus USA 300 ΔClpP” value (S. aureus USA 300 ΔClpP) was 200 µM. It also gave an IC50 at 72 h [1] of 46.5 ± 9.8 µM.

In the case of `Cc1ccc(NC(=O)N[C@@H](Cc2cc(F)cc(F)c2)C(=O)N[C@@H]2C(=O)N3CCC[C@H]3C(=O)N3CCCC[C@H]3C(=O)N[C@@H](C)C(=O)N3C[C@@H](C)C[C@H]3C(=O)O[C@H]2C)cc1` [Compound 18, (S)-3-(3,5-Difluorophenyl)-2-(3-(P-Tolyl)Ureido)-N-((2R,6S,8aS,14aS,20S,21S,23aS)-2,6,21-Trimethyl-5,8,14,19,23-Pentaoxooctadecahydro-1H,5H,14H,19H-Pyrido[2,1-I]Dipyrrolo[2,1-C:2′,1′-L][1]Oxa[4,7,10,13]Tetraazacyclohexadecin-20-Yl)Propanamide], the EC50 (S. aureus ClpP (Sa-ClpP); [3]) is reported as 7 ± 0.9 µM, the half-life (in vitro) is reported as 60 ± 6 min and the “Minimal Inhibitory Concentration S. aureus USA 300 ΔClpP” value (S. aureus USA 300 ΔClpP) is reported as 100 µM. It also gave an IC50 at 72 h [1, 2] of 26.7 ± 3.6 µM and an MIC (E. faecails ATCC 33186) of 0.8 µM (≈ 0.646 µg/mL).

For `C[C@H]1C[C@H]2C(=O)O[C@@H](C)[C@H](NC(=O)[C@H](Cc3cc(F)cc(F)c3)NC(=O)Nc3ccc(C(F)(F)F)cc3)C(=O)N3CCC[C@H]3C(=O)N3CCCC[C@H]3C(=O)N[C@@H](C)C(=O)N2C1` [Compound 19, (S)-3-(3,5-Difluorophenyl)-2-(3-(4-(Trifluoromethyl)Phenyl)Ureido)-N-((2R,6S,8aS,14aS,20S,21S,23aS)-2,6,21-Trimethyl-5,8,14,19,23-Pentaoxooctadecahydro-1H,5H,14H,19H-Pyrido[2,1-I]Dipyrrolo[2,1-C:2′,1′-L][1]Oxa[4,7,10,13]Tetraazacyclohexadecin-20-Yl)Propanamide], the EC50 (S. aureus ClpP (Sa-ClpP); [3]) was 3.2 ± 0.1 µM, the half-life (in vitro) was 30 min and the “Minimal Inhibitory Concentration S. aureus USA 300 ΔClpP” value (S. aureus USA 300 ΔClpP) was 6.2 µM. For the same compound, the IC50 at 72 h [1, 2] was 36.8 ± 4.1 µM and the MIC (E. faecails ATCC 33186) was 0.39 µM (≈ 0.336 µg/mL).

For `C[C@H]1C[C@H]2C(=O)O[C@@H](C)[C@H](NC(=O)[C@H](Cc3cc(F)cc(F)c3)NC(=O)Nc3ccc4c(c3)OCO4)C(=O)N3CCC[C@H]3C(=O)N3CCCC[C@H]3C(=O)N[C@@H](C)C(=O)N2C1` [Compound 20, (S)-2-(3-(Benzo[D][1,3]Dioxol-5-Yl)Ureido)-3-(3,5-Difluorophenyl)-N-((2R,6S,8aS,14aS,20S,21 S,23aS)-2,6,21-Trimethyl-5,8,14,19,23-Pentaoxooctadecahydro-1H,5H,14H,19H-Pyrido[2,1-I]Dipyrrolo[2,1-C:2′,1′-L][1]Oxa[4,7,10,13]Tetraazacyclohexadecin-20-Yl)Propanamide], the EC50 (S. aureus ClpP (Sa-ClpP)) was 1.6 ± 0.3 µM, the half-life (in vitro) was 414 ± 78 min and the “Minimal Inhibitory Concentration S. aureus USA 300 ΔClpP” value (S. aureus USA 300 ΔClpP) was 200 µM. For the same compound, the IC50 at 72 h [1] was 52.8 ± 4.9 µM.

In the case of `Cc1ccc(NC(=O)N[C@@H](Cc2ccccc2)C(=O)N[C@H]2COC(=O)[C@@H]3C[C@@H](C)CN3C(=O)[C@H](C)NC(=O)[C@@H]3CCCCN3C(=O)[C@@H]3CCCN3C2=O)cc1` [Compound 23, (S)—N-((2R,6S,8aS,14aS,20S,23aS)-2,6-Dimethyl-5,8,14,19,23-Pentaoxooctadecahydro-1H,5H,14H,19H-Pyrido[2,1-I]Dipyrrolo[2,1-C:2′,1′-L][1]Oxa[4,7,10,13]Tetraazacyclohexadecin-20-Yl)-3-Phenyl-2-(3-(P-Tolyl)Ureido)Propanamide], the EC50 (S. aureus ClpP (Sa-ClpP); [3]) is reported as 2.6 ± 0.4 µM, the half-life (in vitro) is reported as 178 ± 18 min and the IC50 at 72 h [1, 2] is reported as 74 ± 7.7 µM. It also gave an MIC (E. faecails ATCC 33186) of under 0.2 µM.
